How the values were obtained:
[1] = system: MCF-7 (ER+) human breast cancer cells; experiment: MCF-7 cell proliferation (cell number); type: cell-based
Text: An aliquot of the GCCB crude extract was fractionated on a Spice C18 Cartridge (a reverse phase column using aliphatic groups attached to a matrix to form a hydrophobic adsorbent. Rainin Instruments Company). Briefly, a GCCB extract in 20% methanol in water was loaded onto a spice cartridge and the pass through (20% methanol) fraction was collected. The column was sequentially eluted with a solution of water comprising 40%, 60%, and 80% methanol in water. The final elution was with 100% methanol. Each fraction, including the pass through fraction, was collected and dried at 50° C. under nitrogen to remove methanol. The eluate was re-dissolved in 100% ethanol. […] Six days following treatment, cell number was determined by hemocytometer counts and results are expressed as cell number in treated wells relative to ethanol controls (100%) as described (B. M. Markaverich et al., J. Steroid Biochem. 29:71-78, 1988; B. M. Markaverich et al., Cancer Res. 50: 1470-1478, 1990; B. M. Markaverich et al., JBC 263: 7203-7210, 1988; B. M. Markaverich et al., Internat. J. Oncol. 4:1291-1300, 1994).
In a further study, the effects of fractionated GCCB extract on the proliferation of the MCF-7 and MDA-231 human breast cancer cells were analyzed. […] Six days following treatment, cell number (% Control) was determined. […]
Cell number was determined 6 days following treatment. […]

estrogen receptor = molecular target: T1, estrogen receptor (Rattus norvegicus, UniProt P06211); experiment: [3H]estradiol binding to estrogen receptor in rat uterine cytosol; conditions: 10 nM [3H]estradiol, extracts rediluted 1:1000, 1-50 μl
T1 sequence (P06211 1-600): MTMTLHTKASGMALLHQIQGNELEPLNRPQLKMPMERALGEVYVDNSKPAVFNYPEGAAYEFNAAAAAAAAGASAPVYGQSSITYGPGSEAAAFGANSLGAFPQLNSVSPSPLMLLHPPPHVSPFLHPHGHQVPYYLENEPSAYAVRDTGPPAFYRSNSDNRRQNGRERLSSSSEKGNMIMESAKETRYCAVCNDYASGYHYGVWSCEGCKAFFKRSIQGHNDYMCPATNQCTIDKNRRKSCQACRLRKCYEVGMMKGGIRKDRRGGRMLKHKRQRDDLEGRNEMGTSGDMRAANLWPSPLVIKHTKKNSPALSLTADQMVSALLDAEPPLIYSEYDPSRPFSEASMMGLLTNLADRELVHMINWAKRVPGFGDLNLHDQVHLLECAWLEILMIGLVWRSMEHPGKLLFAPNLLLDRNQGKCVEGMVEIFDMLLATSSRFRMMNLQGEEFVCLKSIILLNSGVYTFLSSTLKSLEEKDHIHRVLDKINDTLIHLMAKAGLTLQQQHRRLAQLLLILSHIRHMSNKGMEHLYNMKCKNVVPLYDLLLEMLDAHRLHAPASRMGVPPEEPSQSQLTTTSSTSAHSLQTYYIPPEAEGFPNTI

Structure (SMILES) | inhibition of MCF-7 proliferation by antiestrogen alone ([1]; 10 nM, in the absence of estrogen, 6 days) | inhibition at 0.01 µM ([1]; Homo sapiens, MCF7, 144 h, read-out: block of the estradiol-induced stimulation of MCF-7 cell proliferation) [%] | competition for [3H]estradiol binding to estrogen receptor (estrogen receptor)
C[C@]12CC[C@@H]3c4ccc(O)cc4C[C@@H](CCCCCCCCC[S+]([O-])CCCC(F)(F)C(F)(F)F)[C@H]3[C@@H]1CC[C@@H]2O (stereo partly drawn) [ICI-182,780] | failed to inhibit | > 50 | 
O=c1c(-c2ccc(O)cc2)coc2cc(O)ccc12 [daidzein] |  |  | competitively inhibit
